This passage reports IC50 results from US20170275270A1, “BENZYL SUBSTITUTED INDAZOLES” (Bayer Pharma Aktiengesellschaft, priority 2014, published 2017).

Structures can show the parent of a compound that is named as a salt. Where two headings read alike, the source gives them in different places.

In experiment [1] the target is T1, catalytic domain of human Bub1 (amino acids 704-1085) (Homo sapiens, UniProt O43683).
T1 construct: catalytic domain of human Bub1 (amino acids 704-1085); His6 (N); made in house; host or cells: Hi5 insect cells
Kind of experiment: Bub1 kinase assay (TR-FRET). In kind it is biochemical. An outline of the steps: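 TR-FRET read-out (Eu-anti-mouse IgG/anti-phosphoserine antibody to streptavidin-XL665 on biotinylated peptide) after EDTA stop and 1 h complex formation at 22° C. Kinase reaction ran 60 min at 22° C with 1:3.4 serial dilutions from 2 mM DMSO stocks. IC50 from 4-parameter logistic fit of normalized inhibition.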
Background: In TR-FRET formats the signal depends on donor and acceptor labels being close together.

The target of the next experiment is Bub1 (Homo sapiens, UniProt O43683). Kind of experiment: Formation-Assay: phosphorylation status of histone 2A by inhibition of kinase activity of Bub1. In kind it is cell-based. Conditions: Biological Assay 4.1: H2A Formation IC50, co-treatment with Nocodazole 1 μg/ml, 16 h. The procedure:
Biological Assay 4.1: Formation-Assay
Cell-Based Mechanistic Assay: Changes of Phosphorylation Status of Histone 2A by Inhibition of Kinase Activity of Bub1
This assay determines the suppression of histone 2A phosphorylation by a Bub1 kinase inhibitor during co-treatment with Nocodazole. 25000 cells (cells were ordered from ATCC) were seeded in 96 well plate for 5 h at 37° C. Cells were treated with Nocodazole (1 μg/ml) and varying concentrations (between 3 nM and 10 μM) of test compounds for 16 h. Cells were fixed (20 min, Fixing solution R&D), washed three times with PBS and blocked with Odyssey blocking buffer before incubating with the primary antibody against phosphorylated H2A (5 μg/ml ABIN482721) overnight at 2-8° C. After washing, secondary IRDye-labeled antibody mix with cell stains was added for 1 h and washed again with PBS. Plates were scanned with LiCor Odyssey Infrared Imager CLx at 800 nm for P-H2A and at 700 nm for cell stains Draq5/Sapphire. The quotient of 800 nm and 700 nm for Nocodazole only treated cells was set as 100% and the quotient of 800 nm and 700 nm of untreated cells was set as 0%.
Histone H2A is an immediate intracellular substrate of Bub1 kinase. Determination of the phosphorylation status of Histone H2A provides a direct measure of the intracellular activity of Bub1 kinase.

A further experiment deals with HeLa. The experiment in a line: Proliferation assay (HeLa cell line).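 Note: crystal violet staining of cell number, scaled between a plate stained before dosing (0%) and cells left untreated (100%), compounds tested at 0.001-10 µM, IC50 via 4-parameter fit.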 To be noted: Homo sapiens, 96 h, read-out: Biological Assay 2: Proliferation assay (HeLa cell line) median IC50.
For experiment [2], the system named is HeLa human cervical tumor cells. The experiment in a line: Proliferation assay (HeLa+Paclitaxel).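 Note: compounds at 0.001-10 µM added 4 h after paclitaxel, 92 h exposure, absorbance normalized to zero-point plate (0%) and untreated cells (100%), IC50 from 4-parameter fit.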 To be noted: read-out: Biological Assay 3: HeLa + Paclitaxel IC50, 3 nM paclitaxel, crystal violet.
Experimental: Proliferation Assay (HeLa+Paclitaxel):
Cultivated HeLa human cervical tumor cells (DSMZ ACC-57) were plated at a density of 3000 cells/well in a 96-well multititer plate in 200 μL of growth medium supplemented 10% fetal calf serum. After 24 hours, the cells of one plate (zero-point plate) were stained with crystal violet (see below). The medium of the other plates was supplemented with 3 nM of paclitaxel (Sigma-Aldrich) and the cells were incubated at 37° C. After 4 hours the test substances were added in various concentrations (0 μM, as well as in the range of 0.001-10 μM; the final concentration of the solvent dimethyl sulfoxide was adjusted to 0.1%) using a Hewlett-Packard HP D300 Digital Dispenser. The cells were incubated for another 92 hours at 37° C. in the presence of test substances. Cell proliferation was determined by staining the cells with crystal violet: the cells were fixed by adding 20 μL/measuring point of an 11% glutaric aldehyde solution for 15 minutes at room temperature. After three washing cycles of the fixed cells with water, the plates were dried at room temperature. The cells were stained by adding 100 μL/measuring point of a 0.1% crystal violet solution (pH 3.0). After three washing cycles of the stained cells with water, the plates were dried at room temperature. The dye was dissolved by adding 100 μL/measuring point of a 10% acetic acid solution. […] The change of cell number, in percent, was calculated by normalization of the measured values to the absorbtion values of the zero-point plate (=0%) and the absorbtion of the untreated (0 μm) cells (=100%). The IC50 values were determined by means of a 4 parameter fit.
Where [3] appears, read: Biological Assay 1: Bub1 kinase assay median IC50, 10 μM ATP.
Where [4] appears, read: 10 μM ATP, read-out: Biological Assay 1: Bub1 kinase assay median IC50.

T1 sequence (O43683 704-1085): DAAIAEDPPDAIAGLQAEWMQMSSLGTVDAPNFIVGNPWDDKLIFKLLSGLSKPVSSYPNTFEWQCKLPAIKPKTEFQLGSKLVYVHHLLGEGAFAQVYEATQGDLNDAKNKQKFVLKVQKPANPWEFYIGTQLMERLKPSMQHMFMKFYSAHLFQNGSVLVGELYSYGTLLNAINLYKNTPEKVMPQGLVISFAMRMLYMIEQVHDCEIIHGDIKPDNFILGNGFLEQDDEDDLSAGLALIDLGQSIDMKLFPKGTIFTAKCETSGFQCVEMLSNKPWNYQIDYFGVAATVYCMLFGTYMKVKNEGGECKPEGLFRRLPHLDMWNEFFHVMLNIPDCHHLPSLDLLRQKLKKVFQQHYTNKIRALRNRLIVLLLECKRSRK
Chain of Bub1 (O43683 whole entry): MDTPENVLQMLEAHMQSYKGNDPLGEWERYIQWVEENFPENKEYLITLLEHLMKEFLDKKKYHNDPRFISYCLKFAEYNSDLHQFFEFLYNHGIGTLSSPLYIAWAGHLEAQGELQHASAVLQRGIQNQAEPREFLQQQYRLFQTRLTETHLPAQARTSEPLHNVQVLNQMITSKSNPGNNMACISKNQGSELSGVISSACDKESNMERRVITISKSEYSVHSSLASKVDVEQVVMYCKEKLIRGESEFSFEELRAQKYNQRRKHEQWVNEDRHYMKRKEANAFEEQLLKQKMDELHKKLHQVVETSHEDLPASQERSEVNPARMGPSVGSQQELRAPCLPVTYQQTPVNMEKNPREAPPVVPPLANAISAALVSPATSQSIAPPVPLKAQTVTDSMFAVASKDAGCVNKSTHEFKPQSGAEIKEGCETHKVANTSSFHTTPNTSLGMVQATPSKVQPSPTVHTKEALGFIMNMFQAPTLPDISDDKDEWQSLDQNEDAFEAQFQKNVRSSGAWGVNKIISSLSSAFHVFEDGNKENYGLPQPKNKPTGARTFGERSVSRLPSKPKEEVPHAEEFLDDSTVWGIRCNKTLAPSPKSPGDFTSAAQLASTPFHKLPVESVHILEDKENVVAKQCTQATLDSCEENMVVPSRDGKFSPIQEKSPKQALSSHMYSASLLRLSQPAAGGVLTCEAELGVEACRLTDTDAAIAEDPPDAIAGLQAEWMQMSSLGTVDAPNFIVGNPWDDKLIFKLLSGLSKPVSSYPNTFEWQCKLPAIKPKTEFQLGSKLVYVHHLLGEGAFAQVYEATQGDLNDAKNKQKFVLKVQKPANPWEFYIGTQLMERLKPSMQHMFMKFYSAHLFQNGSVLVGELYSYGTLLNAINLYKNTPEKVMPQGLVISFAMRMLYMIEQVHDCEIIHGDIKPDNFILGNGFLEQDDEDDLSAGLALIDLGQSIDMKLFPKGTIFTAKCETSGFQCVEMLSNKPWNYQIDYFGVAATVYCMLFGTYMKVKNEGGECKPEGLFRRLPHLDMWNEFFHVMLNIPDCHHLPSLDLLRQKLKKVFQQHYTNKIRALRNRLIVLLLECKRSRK

`OCCOc1cc(F)c(Cn2nc(-c3nc4c(c(Nc5ccncn5)n3)CCC4)c3ccccc32)c(F)c1` [Example 2-6-19, 2-[3,5-difluoro-4-({3-[4-(pyrimidin-4-ylamino)-6,7-dihydro-5H-cyclopenta[d]pyrimidin-2-yl]-1H-indazol-1-yl}methyl)phenoxy]ethanol]: the IC50 in experiment [1] (setting [3]) was 8.9 nM; on Bub1 it was 2.6 nM; in the experiment with HeLa, above 10000 nM; in experiment [2], 140 nM.
The like results for `CCOc1cc(F)c(Cn2nc(-c3ncc(CC[S@@+](C)[O-])c(Nc4ccncc4)n3)c3ccccc32)c(F)c1` [Example 2-1-1, 2-[1-(4-ethoxy-2,6-difluorobenzyl)-1H-indazol-3-yl]-5-{2-[(R)-methylsulfinyl]ethyl}-N-(pyridin-4-yl)pyrimidin-4-amine] were, in that order, 5 nM, 1400 nM, 3600 nM and 150 nM.
The like results for `CCOc1cc(F)c(Cn2nc(-c3nc4c(c(Nc5ccnc(C)n5)n3)CC(C)(C)C4)c3ccccc32)c(F)c1` [Example 2-12-60, 2-[1-(4-ethoxy-2,6-difluorobenzyl)-1H-indazol-3-yl]-6,6-dimethyl-N-(2-methylpyrimidin-4-yl)-6,7-dihydro-5H-cyclopenta[d]pyrimidin-4-amine] were, in that order, 38 nM, 3.9 nM, above 10000 nM and 86 nM.
`CCOc1cc(F)c(Cn2nc(-c3ncc(OCCO)c(Nc4ccncc4)n3)c3ccccc32)c(F)c1` [Example 3-1-1, 2-({2-[1-(4-ethoxy-2,6-difluorobenzyl)-1H-indazol-3-yl]-4-(pyridin-4-ylamino)pyrimidin-5-yl}oxy)ethanol, reference compound]: the IC50 in experiment [1] (setting [3]) came out at 11 nM; on Bub1, 1100 nM; in the experiment on HeLa, 1500 nM; in experiment [2] it was 1400 nM.
On the same counts, the results for `CCOc1cc(F)c(Cn2nc(-c3ncc(C4CCN(CC(F)(F)F)CC4)c(Nc4ccnc(NC(C)=O)c4)n3)c3ccccc32)c(F)c1` [Example 2-20-1, N-[4-({2-[1-(4-ethoxy-2,6-difluorobenzyl)-1H-indazol-3-yl]-5-[1-(2,2,2-trifluoroethyl)piperidin-4-yl]pyrimidin-4-yl}amino)pyridin-2-yl]acetamide] are 17 nM, 110 nM, above 10000 nM and 130 nM.
The like results for `COCCOc1cc(F)c(Cn2nc(-c3nc4c(c(Nc5ccnc(C)n5)n3)CC(C)(C)C4)c3ccccc32)c(F)c1` [Example 2-12-61, 2-{1-[2,6-difluoro-4-(2-methoxyethoxy)benzyl]-1H-indazol-3-yl}-6,6-dimethyl-N-(2-methylpyrimidin-4-yl)-6,7-dihydro-5H-cyclopenta[d]pyrimidin-4-amine] were, in that order, 74 nM, 2400 nM, above 10000 nM and 130 nM.
On the same counts, the results for `CCOc1cc(F)c(Cn2nc(-c3nc(Nc4ccncc4)cc(C(C)C)n3)c3ccccc32)c(F)c1` [Example 2-12-3, 2-[1-(4-ethoxy-2,6-difluorobenzyl)-1H-indazol-3-yl]-6-(propan-2-yl)-N-(pyridin-4-yl)pyrimidin-4-amine] are 17 nM, 34 nM, 4900 nM and 1400 nM.
In the case of `CCOc1cc(F)c(Cn2nc(-c3ncc(CN)c(Nc4ccncc4)n3)c3ccccc32)c(F)c1` [Example 2-9-5, 5-(aminomethyl)-2-[1-(4-ethoxy-2,6-difluorobenzyl)-1H-indazol-3-yl]-N-(pyridin-4-yl)pyrimidin-4-amine, salt with hydrochloric acid], the IC50 in experiment [1] (setting [4]) was determined as 14 nM; on Bub1, 1.8 nM; with HeLa, 1800 nM; in experiment [2] it was 340 nM.
As for `CCOc1cc(F)c(Cn2nc(-c3nc4c(c(Nc5ccnc(C(F)F)c5)n3)CCC4)c3ccccc32)c(F)c1` [Example 2-19-8, N-[2-(difluoromethyl)pyridin-4-yl]-2-[1-(4-ethoxy-2,6-difluorobenzyl)-1H-indazol-3-yl]-6,7-dihydro-5H-cyclopenta[d]pyrimidin-4-amine], the IC50 in experiment [1] (setting [4]) is 8.1 nM; on Bub1 it was 2500 nM; in the experiment on HeLa, above 10000 nM; in experiment [2], 440 nM.
The like results for `CCOc1cc(F)c(Cn2nc(-c3nc(CN4CCOCC4)cc(Nc4ccnc(C)c4)n3)c3ccccc32)c(F)c1` [Example 2-19-9, 2-[1-(4-ethoxy-2,6-difluorobenzyl)-1H-indazol-3-yl]-N-(2-methylpyridin-4-yl)-6-(morpholin-4-ylmethyl)pyrimidin-4-amine] were, in that order, 23 nM, 18 nM, 1300 nM and 75 nM.
In the case of `CCOc1cc(F)c(Cn2nc(-c3nc4c(c(Nc5ccnc(C)n5)n3)CCC4)c3ccccc32)c(F)c1` [Example 2-12-54, 2-[1-(4-ethoxy-2,6-difluorobenzyl)-1H-indazol-3-yl]-N-(2-methylpyrimidin-4-yl)-6,7-dihydro-5H-cyclopenta[d]pyrimidin-4-amine], the IC50 in experiment [1] (setting [3]) amounted to 31 nM; on Bub1, 14 nM; with HeLa, 3300 nM; in experiment [2] it was 180 nM.
For `CCOc1cc(F)c(Cn2nc(-c3ncc(CCN)c(Nc4ccnc(C(F)F)c4)n3)c3ccccc32)c(F)c1` [Example 2-9-10, 5-(2-aminoethyl)-N-[2-(difluorometh-yl)pyridin-4-yl]-2-[1-(4-ethoxy-2,6-difluorobenzyl)-1H-indazol-3-yl]pyrimidin-4-amine, salt with hydrochloric acid], the IC50 in experiment [1] (setting [4]) was found to be 7.1 nM; on Bub1, 1500 nM; in the experiment on HeLa, 1000 nM; in experiment [2], 54 nM.
For the compound `CCOc1cc(F)c(Cn2nc(-c3nc4c(c(Nc5ccncn5)n3)CCC4)c3ccccc32)c(F)c1` [Example 2-14-6, 2-[1-(4-ethoxy-2,6-difluorobenzyl)-1H-indazol-3-yl]-N-(pyrimidin-4-yl)-6,7-dihydro-5H-cyclopenta[d]pyrimidin-4-amine], the IC50 in experiment [1] (setting [4]) was found to be 37 nM; at Bub1, 2.7 nM; in the experiment on HeLa, 3600 nM; in experiment [2], 270 nM.
On the same counts, the results for `CCOc1cc(F)c(Cn2nc(-c3nc4c(c(Nc5ccncc5)n3)CSC4)c3ccccc32)c(F)c1` [Example 2-19-1, 2-[1-(4-ethoxy-2,6-difluorobenzyl)-1H-indazol-3-yl]-N-(pyridin-4-yl)-5,7-dihydrothieno[3,4-d]pyrimidin-4-amine] are 14 nM, 350 nM, 1200 nM and 350 nM.
The like results for `OCCOc1cc(F)c(Cn2nc(-c3nc(CN4CCOCC4)cc(Nc4ccncc4)n3)c3ccccc32)c(F)c1` [Example 2-6-38, 2-[3,5-difluoro-4-({3-[4-(morpholin-4-ylmethyl)-6-(pyridin-4-ylamino)pyrimidin-2-yl]-1H-indazol-1-yl}methyl)phenoxy]ethanol] were, in that order, 10 nM, 2300 nM, above 10000 nM and 930 nM.
Take `CCOc1cc(F)c(Cn2nc(-c3ncc(C4CCN(CC(F)(F)F)CC4)c(Nc4ccnc(C)c4)n3)c3ccccc32)c(F)c1` [Example 2-20-5, 2-[1-(4-ethoxy-2,6-difluorobenzyl)-1H-indazol-3-yl]-N-(2-methylpyridin-4-yl)-5-[1-(2,2,2-trifluoroethyl)piperidin-4-yl]pyrimidin-4-amine]: the IC50 in experiment [1] (setting [3]) is 68 nM; on Bub1, 0.5 nM; in the experiment on HeLa, 3600 nM; in experiment [2], 210 nM.
As to `CCOc1cc(F)c(Cn2nc(-c3nc(C)c(F)c(Nc4ccnc(C(F)(F)F)c4)n3)c3ccccc32)c(F)c1` [Example 2-12-21, 2-[1-(4-ethoxy-2,6-difluorobenzyl)-1H-indazol-3-yl]-5-fluoro-6-methyl-N-[2-(trifluoromethyl)pyridin-4-yl]pyrimidin-4-amine], the results for the IC50 (on Bub1; in the experiment on HeLa; in experiment [2]) were 38 nM, above 10000 nM and 670 nM, respectively.
The like results for `CCOc1cc(F)c(Cn2nc(-c3nc4c(c(Nc5ccnc(C(F)(F)F)c5)n3)CNCC4)c3ccccc32)c(F)c1` [Example 2-9-17, 2-[1-(4-ethoxy-2,6-difluorobenzyl)-1H-indazol-3-yl]-N-[2-(trifluorometh-yl)pyridin-4-yl]-5,6,7,8-tetrahydro-pyrido[4,3-d]pyr-imidin-4-amine] were, in that order, 2 nM, 2100 nM and 130 nM.
